# Assay results from US8507219B2, “Method of treating inflammation with statins” (MUSC Foundation for Research Development, priority 1997, dated 2013).
# pIC50: −log10 of the molar value. “Also recorded” adds a separate entry of the source. Read-outs that look alike come from different tables or passages of the source.
# Key:
# [1] = tested on: astrocytes, microglia or macrophages
# Description: Cell viability Cytotoxic effects of the inhibitors were deter-mined by measuring the cell viability by Trypan blue exclusion.
# [2] = human, in vivo
# sterol synthesis = conditions: Sinensky et al., 1991; read-out: IC50 for inhibition of sterol synthesis; cited from earlier work
# [3] = tested on: conversion of pro-p21^ras to mature-p21^ras; conditions: Sinensky et al., 1991; read-out: IC50 for inhibition of conversion of pro-p21^ras to mature-p21^ras; cited from earlier work
# [4] = in vivo; cited from earlier work
# [5] = tested on: TNF-α production in rat resident macrophages; test: LPS-/IFN-γ-induced TNF-α production (ELISA) in rat macrophages; format: cell-based; conditions: for inhibition at 20000 µM: Rattus norvegicus, Macrophage
# Experimental: Resident macrophages cultured in serum-free RPMI 1640 medium received 20 mM NAC or 100 μM PDTC 2 h before the addition of stimuli. When stimuli were used separately their concentrations were: LPS, 1.0 μg/ml; IFN-γ, 200 U/ml, and when they were used together, their concentrations were: LPS, 0.2 μg/ml; IFN-γ, 50 U/ml. Supernatants were collected 24 h after the addition of stimuli to measure TNF-α concentration using ELISA as described.
# [6] = tested on: NOS activity in rat resident macrophages; test: NOS activity (L-citrulline from L-arginine) in homogenates of treated rat resident macrophages; format: cell-based; conditions: for inhibition at 20000 µM: Rattus norvegicus, Macrophage
# Experimental: NOS activity was measured directly by production of L-[2,3,4,5-^3H]citrulline from L-[2,3,4,5-^3H] arginine (Feinstein et al., 1994a). […] Assays were carried out for 30 to 40 min and the production of L-[2,3,4,5-^3H] citrulline was linear. The reactions were stopped by addition of 800 μl of ice-cold 20 mM HEPES (pH 5.5) followed by addition of 2 ml of Dowex-50W equilibrated in the same buffer. The samples were then centrifuged and the concentration of L-[^3H]citrulline was determined in the supernatant by liquid scintillation counting.
# [7] = tested on: ceramide production in rat primary astrocytes; test: Degradation of sphingomyelin to ceramide (DAG kinase assay, HPTLC) in rat primary astrocytes; format: cell-based; conditions: 10 mM NAC or 100 μM PDTC 1 h before TNF-α or IL-1β (50 ng/ml), diamide 0.5 mM or aminotriazole 5 mM
# Summary of the method: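 About 1.0×10^6 cells were exposed to cytokines with or without antioxidants for various periods, then lipids were extracted. Sphingomyelin was separated by HPTLC and quantified by densitometry. Ceramide was phosphorylated with DAG kinase and [γ-^32P]ATP, and ceramide 1-phosphate was resolved by TLC and quantified by autoradiography/densitometry, expressed as arbitrary absorbance units or percent change.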
# [8] = IFN-γ 200 U/ml, NAC 20 mM 2 h before
# [9] = IL-1β 200 ng/ml, NAC 20 mM 2 h before
# [10] = LPS 0.2 μg/ml + IFN-γ 50 U/ml, NAC 20 mM 2 h before
# [11] = LPS 0.2 μg/ml + IL-1β 25 ng/ml, NAC 20 mM 2 h before
# [12] = LPS 0.2 μg/ml + TNF-α 20 ng/ml, NAC 20 mM 2 h before
# [13] = LPS 1.0 μg/ml, NAC 20 mM 2 h before
# [14] = TNF-α 20 ng/ml + IFN-γ 50 U/ml, NAC 20 mM 2 h before
# [15] = TNF-α 20 ng/ml + IL-1β 25 ng/ml, NAC 20 mM 2 h before
# [16] = TNF-α 100 ng/ml, NAC 20 mM 2 h before
# [17] = no stimulus (Control), NAC 20 mM
structure (smiles),measurement,setting,value
CC[C@H](C)C(=O)O[C@H]1C[C@@H](C)C=C2C=C[C@H](C)[C@H](CC[C@@H]3C[C@@H](O)CC(=O)O3)[C@H]21 [Lovastatin],viability (trypan blue exclusion),[1],"had no effect on the viability of astrocytes, microglia, or macrophages"
same,viability (trypan blue exclusion),[1]; rat,"none of the compounds lovastatin, mevastatin, NaPA, TNF-α, IL-1β, IFN-γ, or LPS had a significant effect on the viability"
same,adverse events leading to withdrawal,[2],persistent diarrhea and a marked elevation of serum creatine kinase levels
same,pIC50,sterol synthesis,8.00
same,pIC50,[3],5.59
"O=C([O-])Cc1ccccc1.[Na+] [NaPA, sodium salt of phenylacetic acid]",pharmacologically attainable concentration,[4],1 to 5 mM
"CC(=O)N[C@@H](CS)C(=O)O [NAC, N-acetyl cysteine]",TNF-α,"[5]; LPS 0.2 μg/ml + IFN-γ 50 U/ml, 20 mM NAC or 100 μM PDTC 2 h before, 24 h",2.3 ± 0.2 ng/24 h/mg protein
same,TNF-α,"[5]; LPS 1.0 μg/ml, 20 mM NAC or 100 μM PDTC 2 h before, 24 h",1.6 ± 0.3 ng/24 h/mg protein
same,inhibition at 20000 µM,"[5]; LPS 0.2 μg/ml + IFN-γ 50 U/ml, 20 mM NAC or 100 μM PDTC 2 h before",93%
same,inhibition at 20000 µM,"[5]; LPS 1.0 μg/ml, 20 mM NAC or 100 μM PDTC 2 h before",92%
same,TNF-α,"[5]; antioxidant alone (20 mM NAC or 100 μM PDTC), no stimulus",0.6 ± 0.2 ng/24 h/mg protein
same,L-citrulline (NOS activity),[6]; [8],13.2 ± 2.4 pmol/min/mg
same,L-citrulline (NOS activity),[6]; [9],12.9 ± 2.1 pmol/min/mg
same,L-citrulline (NOS activity),[6]; [10],32.3 ± 4.6 pmol/min/mg
same,L-citrulline (NOS activity),[6]; [11],44.9 ± 6.1 pmol/min/mg
same,L-citrulline (NOS activity),[6]; [12],19.7 ± 2.7 pmol/min/mg
same,"LPS-induced NOS activity, L-citrulline formation","[6]; LPS 1.0 μg/ml, 24 h",formation of L-citrulline was strongly inhibited; also recorded: inhibited LPS-induced NOS activity
same,L-citrulline (NOS activity),[6]; [13],14.2 ± 2.3 pmol/min/mg
same,inhibition at 20000 µM,[6]; [8],90%
same,inhibition at 20000 µM,[6]; [9],43%
same,inhibition at 20000 µM,[6]; [10],83%
same,inhibition at 20000 µM,[6]; [11],78%
same,inhibition at 20000 µM,[6]; [12],91%
same,inhibition at 20000 µM,[6]; [13],91%
same,inhibition at 20000 µM,[6]; [14],82%
same,inhibition at 20000 µM,[6]; [15],85%
same,inhibition at 20000 µM,[6]; [16],61%
same,inhibition at 20000 µM,[6]; [17],25%
same,L-citrulline (NOS activity),[6]; [14],36.9 ± 3.4 pmol/min/mg
same,L-citrulline (NOS activity),[6]; [15],28.2 ± 4.3 pmol/min/mg
same,L-citrulline (NOS activity),[6]; [16],12.9 ± 2.3 pmol/min/mg
same,L-citrulline (NOS activity),[6]; [17],10.2 ± 0.9 pmol/min/mg
same,degradation of sphingomyelin to ceramide / ceramide production,[7],potentially blocked the decrease in sphingomyelin as well as the increase in ceramide; also recorded: blocked diamide-mediated decrease in GSH level and induction of ceramide production; also recorded: blocked the ATZ-mediated increase in ceramide production
